Results as given in patent US8889902B2, “Acetylsalicylic acid salts” (priority 2009, dated 2014).

What was measured:
[1] = test system: tail bleeding; test: Tail bleeding time during thrombosis experiment; assay type: in vivo, rats; details: for Tail bleeding time, %: control = 100
Procedure: Additionally during the thrombosis experiment rat tail bleeding time was measured. The tail was transected 5 mm from the tip with scalpel and the tail was immediately immersed into 37° C. warm isotonic saline until termination of bleeding was noted. Termination of bleeding was defined as the time of complete stop of bleeding with no recurrence of bleeding within the next 30 s.

[2] = test system: platelet aggregation; test: Platelet aggregation ex vivo after 3 days treatment; assay type: in vivo, rats; details: 5 mg/kg/d p.o. 3 days
Procedure: Platelet aggregation was studied using whole blood impedance aggregometry on Multiplate (Multiple Platelet Function Analyzer, Dynabyte Medical, Germany) (Toth O et al, Thromb Haemost 2006; 96:781-788. […] Blood samples for in vitro experiment were collected from healthy donor B. […] In the ex vivo experiment blood was collected into plastic tubes covered with hirudin (Dynabyte Medical, Germany) from narcotized rats that were treated for 3 previous days with test substances p.o. The measurements were performed according to modified Dynabyte Medical protocol. […] After 5 min incubation and stirring at 37° C., measurements were initiated by adding of the appropriate agonist solution (sourced from Dynabyte Medical, Germany): After the thrombosis experiment the narcotized animals who received test substances for 3 days were used for platelet aggregation test ex vivo. […] Blood samples were used for measurement between 30 min and 4 h after collection. The measurements were performed according to modified Dynabyte Medical protocol (see above under Platelet aggregation).

[3] = test system: FeCl3 induced carotid artery thrombosis; test: FeCl3 induced carotid artery thrombosis, time till occlusion; assay type: in vivo, Wistar rats; details: for Time till occlusion, %: control = 100
From the text: We chose an experimental thrombosis model based on rat arterial thrombosis induced by FeCl3 (Kurz K et al, Thromb Res 1990, 60:269-280. Wang X, Xu L, Thromb Res 2005,115:95-100). Tissue damage initiated by iron-mediated chemical oxidation predisposes the injured area to platelet adherence and aggregation followed by coagulation activation and fibrin deposition. Male Wistar rats with mass 350-420 g were used in experiments. Animals were kept in groups of 7-8 in adequate cages in climatized room at 22±1° C., relative humidity 60±5% and 12/12-hour light/darkness cycle with free access to feed and water. All experiments were carried out in accordance with the European Community Council's Directive of 24 Nov. 1986 (86/609/EEC) relative to experimental animal care. All efforts were made to minimize animal suffering and to reduce the number of animals used. Rats were randomly divided into various experimental groups, each consisting of not less than seven animals. The vehicle or test compound MD (25 mg/kg), NA (25 mg/kg), MASA (10 mg/kg), ASA (5 mg/kg) and combination MD+NA (25+25 mg/kg), MASA+NA (10+25 mg/kg) and ASA+NA (5+25 mg/kg) was administered by oral route 2 h before the initiation of thrombosis. Parallel experiments were conducted to compare the effects of a single dose of test substance (given 2 h before the initiation of thrombosis) and repeated doses (once daily for 3 days). […] Rats were anaesthetized with pentobarbital sodium (50 mg/kg, i.p. and 10 mg/kg/h) and were placed on a heat controlled operating table throughout the experiment to maintain a body temperature of 37° C. One of the carotid arteries was exposed by cervical incision, separated from the adherent tissue, vagus nerve, and a flow probe (electromagnetic blood flow meter MFV 1200, Nicon Kohden, Japan) was placed on the exposed segment of common carotid artery to record the blood flow. After a stabilization period of 15 min, thrombosis was induced by topically applying (in contact with the adventitial surface of vessel) two pieces (2×1 mm) of Whatman filter paper, soaked in 15% solution of FeCl3. Thrombosis time of carotid artery was recorded as time taken for the complete cessation of the blood flow and has been reported as time till occlusion (TTO).

[4] = test system: platelet aggregation; test: Platelet aggregation in vitro, whole blood impedance aggregometry (Multiplate); assay type: cell-based, healthy donor; details: 3 × 10^−4
Procedure: Platelet aggregation was studied using whole blood impedance aggregometry on Multiplate (Multiple Platelet Function Analyzer, Dynabyte Medical, Germany) (Toth O et al, Thromb Haemost 2006; 96:781-788. […] Blood samples for in vitro experiment were collected from healthy donor B. […] In the ex vivo experiment blood was collected into plastic tubes covered with hirudin (Dynabyte Medical, Germany) from narcotized rats that were treated for 3 previous days with test substances p.o. The measurements were performed according to modified Dynabyte Medical protocol. […] After 5 min incubation and stirring at 37° C., measurements were initiated by adding of the appropriate agonist solution (sourced from Dynabyte Medical, Germany): 1) adenosine diphosphate (ADP)-ADP-Test. ADP stimulates platelet activation by the ADP receptors (P2Y 12 and other). […] 3) ADP HS test (prostaglandin E1 in combination with ADP). […] Aggregation curves were recorded for 6 min. and analyzed using Dynabyte Medical software. We calculated the following parameters of platelet aggregation: […] It is affected by the total height of the aggregation curve as well as by its slope and is best suited to express the overall platelet activity.

[5] = Solubility in water
[6] = Stability at ambient conditions
[7] = test system: rat ear skin temperature; test: Ear skin temperature rise caused by NA, s.c. administration; assay type: in vivo, Wistar rats; details: LA 0.3 mg/kg s.c. alone
Procedure: Male Wistar rats (280-330 g) were used. Animals were held in groups of 6 in climatized rooms at 22±1° C., relative humidity 60±5%, and 12/12-hour light/dark cycle with free access to drinking water and feed (R3—Lactamin AB, Sweden). For registration of changes in skin temperature of intact rats contactless temperature recording method was used (Papaliodis D et al, Br J Pharmacol 2008; 153:1382-1387). Temperature measurements were performed with a hand-held infrared thermometer (Model Proscan 510, TFA-Dostman). Animals were habituated to handling and to the infrared probe for 3 days before use. Temperature readings from the dorsal side of each ear were recorded without anaesthesia at beginning and during experiment. The ear temperature was measured every 5 min. for a period of up to 60 min. The animals were returned to their cages between measurements. NA, MD and MASA were dissolved in saline and pH was corrected immediately before usage. LA (MK 0524, Cayman Chemicals) was first dissolved in DMSO and then freshly diluted with 0.9% NaCl, on each day of the experiment. The rate of NA and LA combination was based on Summary of Product Characteristics for Tredaptive™ (nicotinic acid/laropiprant) 1000 mg/20 mg modified-release tablets.
The influence of LA, MD or MASA alone on skin temperature was checked. Each investigated compound was introduced s.c. simultaneously with NA as LA+NA [0] or 30 min in advance to NA as LA+NA [30].

[8] = 5 mg/kg/d p.o., repeated, 3 days

COC(=O)[C@H](c1ccccc1Cl)N1CCc2sccc2C1 [CL, clopidogrel]
Tail bleeding time ([1]; 5 mg/kg p.o., single dose): 11.9 ± 3.62 min | Tail bleeding time, % ([1]; 5 mg/kg p.o., single dose): 134% | Tail bleeding time [1, 8]: 18.3 ± 3.78^1 min | Tail bleeding time, % [1, 8]: 213% | AUC ([2]; AA induced): 905 ± 53.5^& AU*min | Amax ([2]; AA induced): 160.7 ± 13.5^&@ AU | AUC ([2]; ADP induced): 423 ± 39.4^2& AU*min | Amax ([2]; ADP induced): 68.2 ± 15.1^2& AU | AUC ([2]; PGE1 + ADP induced): 259 ± 49.3^2& AU*min | Amax ([2]; PGE1 + ADP induced): 49.7 ± 9.9^3&& AU | Time till occlusion ([3]; 5 mg/kg p.o., single dose 2 h before): 31.7 ± 2.40^1 min | Time till occlusion, % ([3]; 5 mg/kg p.o., single dose): 130% | Time till occlusion [3, 8]: 49.1 ± 7.75^1 min | Time till occlusion, % [3, 8]: 194%

OCCN(CCO)c1nc(N2CCCCC2)c2nc(N(CCO)CCO)nc(N3CCCCC3)c2n1 [DI, dipyridamole]
AUC ([4]; AA induced): 1104 ± 45.5^&@@ AU*min | Amax ([4]; AA induced): 173.9 ± 5.2^&@@ AU | AUC ([4]; ADP induced): 665 ± 44.1^2& AU*min | Amax ([4]; ADP induced): 111.1 ± 6.9^2& AU

CC(=O)Oc1ccccc1C(=O)[O-].C[N+](C)(C)CCCC(=O)O [Example 1, 4-trimethylammoniobutanoate Acetylsalicylic Acid Addition Salt]
solubility in water (in words) [5]: water soluble | stability (in words) [6]: stable at ambient conditions

CS(=O)(=O)c1cc(F)cc2c3c(n(Cc4ccc(Cl)cc4)c12)[C@@H](CC(=O)O)CC3 [LA, laropiprant]
Maximum temperature [7]: 29.5 ± 0.35^$$$ ° C.
